Experimental data reported in the NIST ThermoML archive (doi:10.1021/je100912t).
± gives the expanded uncertainty stated by the source.

Key:
[1] = refractive index (Na D-line) (dimensionless); details: 298.15 K; 101.33 kPa; Liquid; Standard Abbe refractometry
[2] = Liquid; for mass density: 298.15 K, 101.33 kPa, Pycnometric method; for vapor or sublimation pressure: Ebulliometric method (Recirculating still)

refractive index [1] | mass density [2] [kg/m3] | vapor or sublimation pressure ([2]; 370.27 K) [kPa] | vapor or sublimation pressure ([2]; 321.18 K) [kPa] | vapor or sublimation pressure ([2]; 412.91 K) [kPa] | Structure (SMILES)
1.3856 ± 0.0004 | 803.62 ± 0.71 | 101.33 ± 1 |  |  | CCCO [propan-1-ol]
1.3634 ± 0.0004 | 797.21 ± 0.7 |  | 101.33 ± 1 |  | CCC=O [propanal]
1.3858 ± 0.0004 | 992.86 ± 0.88 |  |  | 101.33 ± 1 | CCC(=O)O [propanoic acid]
